In patent US11597703B2, “Caspase inhibitors and methods of use thereof” (Histogen Inc., priority 2019, dated 2023):

Assay: Rodent model of ulcerative colitis induced by TNBS
Type: in vivo, Sprague-Dawley rats
Method: Compounds of the present invention were tested by oral administration in a rodent model of ulcerative colitis (UC). Ulcerative colitis was induced in Sprague-Dawley rats by instillation of 48 mg/kg […], (TNBS), through the rectum. Testing included 4 active treatment groups and one vehicle control group.
Effect of TNBS-Induced UC in Vehicle Treated Control Group, (Group 1):
Rats were administered of 0.5% vehicle carboxy methylcellulose, (CMC), twice daily starting 24 hours after the instillation of TNBS.
At the termination of the study on DAY 7, the average colon weight in the diseased rats was 5.904±2.208 g, the average colon length was 11.0±1.4 cm and the average distal colon width was 3.1±1.0 cm. Severe adhesions involving multiple intestinal loops, severe stricture resulting in proximal colon distension, ulcers of 6.4±0.4 cm in length, and colonic wall thickness of 3.5±0.8 mm combined to yield an overall colonic score of 11.5±0.8 in the diseased rats. […] Subacute inflammation (sub/mucosal and transmural/serosal were graded separately) was characterized by infiltration and aggregation of neutrophils, eosinophils, lymphocytes, plasma cells, and macrophages. Mucosal necrosis was characterized by damage to, necrosis of, or complete loss of colonic glands. Erosions were characterized by coagulative necrosis or loss of surface epithelium superficial to the muscularis mucosae. Submucosal edema was characterized by expansion of the submucosa by clear space or pale eosinophilic fluid, variably accompanied by dilation of lymphatic vessels and similar edematous expansion of the lamina propria. Epithelial hyperplasia was characterized by elongation of colonic glands and increased numbers of epithelial mitotic figures.

[1] = 10 mg/kg once daily oral, starting 24 hours after TNBS
[2] = Group 2, prednisolone 10 mg/kg once daily oral, DAY 7

For `C[C@]12C=CC(=O)C=C1CC[C@@H]1[C@@H]2[C@@H](O)C[C@@]2(C)[C@H]1CC[C@]2(O)C(=O)CO` [Prednisolone, reference compound], the “all measured colon parameters” value [1] was “significantly improved”, the “animal health as reflected by body weight” value [1] was “improved animal health by DAY 4” and the “average inhibition of the histological parameters” value [1] was 40%. For the same compound, the “reduction in the overall colonic score” value [1] was 67%, the “colon histology: Edema, Submucosal, Mean” value [2] was 2.3 and the “colon histology: Erosion/ Ulceration, Mean” value [2] was 2.9. For the same compound, the “colon histology: Hyperplasia, Epithelial, Mean” value [2] was 2.9, the “colon histology: Necrosis, Mucosal/ Gland Loss, Mean” value [2] was 2.9 and the “colon histology: SUM Score, Mean” value [2] was 16.3. For the same compound, the “colon histology: Subacute Inflammation, Mucosal/ Submucosal, Mean” value [2] was 3.5, the “colon histology: Subacute Inflammation, Transmural/ Serosal, Mean” value [2] was 2.8 and the average animal weight, Mean (Group 2, prednisolone 10 mg/kg once daily oral, study day 0) was 235 g. It also gave an average animal weight, Mean (Group 2, prednisolone 10 mg/kg once daily oral, study day 1) of 232 g, an average animal weight, Mean (Group 2, prednisolone 10 mg/kg once daily oral, study day 2) of 221 g and an average animal weight, Mean (Group 2, prednisolone 10 mg/kg once daily oral, study day 3) of 223 g. It also gave an average animal weight, Mean (Group 2, prednisolone 10 mg/kg once daily oral, study day 4) of 223 g, an average animal weight, Mean (Group 2, prednisolone 10 mg/kg once daily oral, study day 5) of 227 g and an average animal weight, Mean (Group 2, prednisolone 10 mg/kg once daily oral, study day 6) of 227 g. For the same compound, the average animal weight, Mean (Group 2, prednisolone 10 mg/kg once daily oral, study day 7) was 229 g, the average animal weight, Mean (Group 2, prednisolone 10 mg/kg once daily oral, study day −1) was 249 g and the average animal weight, Mean (Group 2, prednisolone 10 mg/kg once daily oral, study day −5) was 222 g.
